Laboratory results: patent US20220133894A1, “BISPHOSPHONATE-LINKED COMPOUNDS” (OREGON HEALTH & SCIENCE UNIVERSITY, priority 2019, published 2022)

Key:
RAW 267.4 cells = experiment: ApoTox-Glo Triplex assay in RANKL treated osteoclast cells; assay type: cell-based, mouse; details: 72 hours after treatment
Experimental: FIG. 5 represents the improved efficacy seen with KBU2046 combined with ZA. In FIG. 5A bone degradation was tested using osteo assays performed as in FIG. 4D. Cells were treated with KBU2046 (46), ZA at 2, 10 or 20 μM, with the indicated combinations, or vehicle (control; CO). Data are the mean±SEM (N=3 replicates); * denotes P<0.05 compared to control, or between conditions denoted by bars. FIG. 5B provides representative photomicrographs of osteo assay wells. Black color denotes presence of bone matrix; RL: RANKL. (FIGS. 5C-5E) Cell viability, cytotoxicity and apoptosis. RAW 267.4 cells were treated with RANKL, at day 4 they were treated with KBU2046, ZA at 1 or 10 μM (ZA1 or ZA10), the indicated combination, or vehicle (CO) and Triplex assay performed 24, 48 or 72 hours later, per Methods. Data are the mean±SEM (N=4 replicates); ¥, #, * denotes P<0.05 compared to control. (FIGS. 5F-5H) In vivo efficacy. Four cohorts of mice, N=15/cohort, were given intracardiac injections of PC3-luc cells, yielding the following successful injections: N=12 control, N=12 ZA, N=13 KBU2046 and N=13 ZA+KBU2046. Treatment was oral 150 mg KBU2046/kg daily (starting 3 days before IC injection), intraperitoneal ZA 100 μg/kg weekly (starting 1 week before IC injection), with oral and intraperitoneal vehicle controls given as indicated. […] (FIGS. 5C and 5D) Quantification of bone lesions. The macroscopic lesions in the jaw were quantified by direct measurement from CT images, and expressed as the mean±SEM percent of control. Bone density of femurs was measured from CT images, and expressed as the mean±SEM percent of control. * denotes P<0.05 compared to control, and for groups indicated by bars.
We next examined the effect of ZA and KBU2046 on osteoclast cell viability, apoptosis and cytotoxicity. RAW 267.4 cells were treated with RANKL for the duration of the experiment, at day 4 they were then treated with ZA, KBU2046, the combination, or vehicle (for controls), and effect on cell viability, apoptosis and cytotoxicity measured by Triplex assay at 24, 48 and 72 hours after treatment (FIGS. 5C-5E). […]

AR = experiment: Subcellular localization of androgen receptor, Western blot of nuclear and cytoplasmic fractions; assay type: cell-based, human; details: LNCaP and VCaP cells, 10 μM KBU2046
Source text: Several considerations warranted a deeper examination of the effect of KBU2046 on AR function. […] Additionally, AR is a client protein of HSP90, AR function requires HSP90-mediated chaperone action, and direct inhibitors of HSP90 decrease client protein expression and inhibit AR function (24-26 Fang et al., J Biol Chem 271, 28697-28702 (1996); Saporita et al., Prostate 67, 509-520 (2007); and Ni et al., Mol Cell Biol 30, 1243-1253 (2010)). […] It is a selective HSP90 activity modulator (SHAM), and selectively modulates client proteins that regulate cell motility. However, the effect of KBU2046 on AR expression and function had not been examined. […]
LNCaP or VCaP cells cultured in hormone free media were treated with R1881 (R), KBU2046 (46) and/or enzalutamide (E). […] PSA expression was measured by qRT/PCR, normalized to GAPDH and expressed as a percent of control cells (N=3 replicates); * denotes P<0.05 for groups separated by bar. […] Data are the number of viable cells, expressed as % of control (N=3 replicates); * P<0.05 compared to control. […] Data are tumor size, expressed as luminescence intensity. All data are expressed as mean±SEM.
LNCaP and VCaP cells were pre-incubated in the charcoal-striped medium containing 10 μM KBU2046 or vehicle control for 72 hours. […] Protein was quantified by BCA assay (Thermo-Fisher Scientific, Waltham, Mass.), per manufacturer's instructions. […]

O=C1c2ccccc2OCC1c1ccc(F)cc1 (stereo not shown) [KBU2046, 3-(4-fluorophenyl)chroman-4-one]
cell viability (RAW 267.4 cells; compared to control): significant increases
cytotoxicity (RAW 267.4 cells; compared to control): decreases
apoptosis (RAW 267.4 cells; compared to controls): significant increase
AR expression or nuclear localization in response to R1881, and its inhibition by enzalutamide (AR): did not affect
